Five molecules from ChEMBL document CHEMBL4627344, “Synthesis, biological evaluation and virtual screening of some acridone derivatives as potential anticancer agents” (2020) can be followed below.

Holding throughout (type): functional
In assay [1] the test system is Hs-578T. The experiment in a line: Antiproliferative activity against human Hs 578T cells assessed as inhibition of cell growth measured after 48 hrs by SRB assay.
In assay [2] the test system is HCT-15. The experiment in a line: Antiproliferative activity against human HCT15 cells assessed as inhibition of cell growth at 10 uM measured after 48 hrs by SRB assay relative to control. The settings on record: HCT-15, 48 h, read-out: GI.
For assay [3], the system named is SNB-75. The assay can be described thus: Antiproliferative activity against human SNB75 cells assessed as inhibition of cell growth at 10 uM measured after 48 hrs by SRB assay relative to control. The note with it: SNB-75, 48 h, read-out: GI. For orientation: The SRB assay estimates cell density from bound dye.
Assay [4] has as its system CCRF-CEM. The assay can be described thus: Antiproliferative activity against human CCRF-CEM cells assessed as inhibition of cell growth at 10 uM measured after 48 hrs by SRB assay relative to control. The note with it: read-out: GI.
Assay [5] concerns HCT-15. The assay can be described thus: Antiproliferative activity against human HCT15 cells assessed as inhibition of cell growth measured after 48 hrs by SRB assay. The settings on record: HCT-15, 48 h.
In assay [6] the test system is IGROV-1. The assay can be described thus: Antiproliferative activity against human IGROV1 cells assessed as inhibition of cell growth at 10 uM measured after 48 hrs by SRB assay relative to control. The settings on record: IGROV-1, 48 h, read-out: GI.
Assay [7] deals with K562. The assay can be described thus: Antiproliferative activity against human K562 cells assessed as inhibition of cell growth at 10 uM measured after 48 hrs by SRB assay relative to control. The settings on record: K562, 48 h, read-out: GI.
The test system of assay [8] is DU-145. The experiment in a line: Antiproliferative activity against human DU145 cells assessed as inhibition of cell growth at 10 uM measured after 48 hrs by SRB assay relative to control. The settings on record: DU-145, 48 h, read-out: GI.
Assay [9] concerns DU-145. The experiment in a line: Antiproliferative activity against human DU145 cells assessed as inhibition of cell growth measured after 48 hrs by SRB assay. The settings on record: DU-145, 48 h.
Assay [10] deals with PC-3. The assay can be described thus: Antiproliferative activity against human PC3 cells assessed as inhibition of cell growth measured after 48 hrs by SRB assay. The settings on record: PC-3, 48 h.
Assay [11] concerns SN12C. The assay can be described thus: Antiproliferative activity against human SN12C cells assessed as inhibition of cell growth measured after 48 hrs by SRB assay.
Assay [12] concerns OVCAR-5. The assay can be described thus: Antiproliferative activity against human OVCAR5 cells assessed as inhibition of cell growth at 10 uM measured after 48 hrs by SRB assay relative to control. The settings on record: OVCAR-5, 48 h, read-out: GI.
Assay [13] concerns HT-29. The assay can be described thus: Antiproliferative activity against human HT-29 cells assessed as inhibition of cell growth measured after 48 hrs by SRB assay. The note with it: HT-29, 48 h.
Assay [14] relates to NCI-H522. The assay can be described thus: Antiproliferative activity against human NCI-H522 cells assessed as inhibition of cell growth measured after 48 hrs by SRB assay. The note with it: NCI-H522, 48 h.
In assay [15] the test system is K562. The experiment in a line: Antiproliferative activity against human K562 cells assessed as inhibition of cell growth measured after 48 hrs by SRB assay. The settings on record: K562, 48 h.
In assay [16] the test system is HCT-116. The experiment in a line: Antiproliferative activity against human HCT116 cells assessed as inhibition of cell growth measured after 48 hrs by SRB assay. The settings on record: HCT-116, 48 h.
Assay [17] concerns SNB-19. The assay can be described thus: Antiproliferative activity against human SNB19 cells assessed as inhibition of cell growth at 10 uM measured after 48 hrs by SRB assay relative to control. The settings on record: SNB-19, 48 h, read-out: GI.
Assay [18] deals with SF-539. The experiment in a line: Antiproliferative activity against human SF539 cells assessed as inhibition of cell growth at 10 uM measured after 48 hrs by SRB assay relative to control. The note with it: SF-539, 48 h, read-out: GI.
Assay [19] deals with M14. The assay can be described thus: Antiproliferative activity against human M14 cells assessed as inhibition of cell growth at 10 uM measured after 48 hrs by SRB assay relative to control. The settings on record: M14, 48 h, read-out: GI.
Assay [20] relates to SK-OV-3. The experiment in a line: Antiproliferative activity against human SKOV3 cells assessed as inhibition of cell growth measured after 48 hrs by SRB assay. The note with it: SK-OV-3, 48 h.
Assay [21] relates to Malme-3M. The experiment in a line: Antiproliferative activity against human MALME-3M cells assessed as inhibition of cell growth measured after 48 hrs by SRB assay.
The test system of assay [22] is SF-268. The experiment in a line: Antiproliferative activity against human SF268 cells assessed as inhibition of cell growth measured after 48 hrs by SRB assay. The settings on record: SF-268, 48 h.
For assay [23], the system named is OVCAR-4. The experiment in a line: Antiproliferative activity against human OVCAR4 cells assessed as inhibition of cell growth measured after 48 hrs by SRB assay. The settings on record: OVCAR-4, 48 h.
Assay [24] relates to HOP-92. The assay can be described thus: Antiproliferative activity against human HOP92 cells assessed as inhibition of cell growth measured after 48 hrs by SRB assay. The note with it: HOP-92, 48 h.
The subject of assay [25] is TK-10. The assay can be described thus: Antiproliferative activity against human TK10 cells assessed as inhibition of cell growth measured after 48 hrs by SRB assay. The settings on record: TK-10, 48 h.

As to `COc1ccc2nc3c(cc2c1)C(=O)CC(C(F)(F)F)C3` (stereo not given), the concentration for 50% growth inhibition (GI50) (in general, the concentration giving 50% growth inhibition) in assay [1] is 3350 nM; in [5] it was 1370 nM; in assay [9], 849 nM; in assay [10], 835 nM; in [11], 823 nM; in assay [13], 387 nM. Also, the results for the GI50 in assay [14], in [15] and in assay [16] were 582 nM, 437 nM and 133 nM, respectively. The inhibition of growth at 10 µM in [2] was 62.2%; in assay [3], 92.1%; in [4] it was 90.1%; in [6], 63.4%; in assay [7], 83.2%; in [8], 95.7%. The inhibition of growth at 10 µM in [12] came to 42.3%; in [17] it was 49.7%; in assay [18] it was 77.4%; in assay [19] it was 91.3%.

In the case of `COc1ccc2nc3c(cc2c1)C(=O)CC(c1ccccc1)C3` (stereo not given), the GI50 is 1000 nM in assay [1]; 2680 nM in assay [5]; 593 nM in [9]; 715 nM in assay [10]; 639 nM in assay [11]; 2090 nM in [20]. The GI50 in assay [13] was determined as 428 nM; in assay [14], 471 nM; in assay [15], 344 nM; in assay [16] it was 432 nM. In addition, the inhibition of growth at 10 µM worked out at 75.2% in assay [2]; 109% in assay [3]; 89.3% in assay [4]; 64.2% in [6]; 86.8% in [7]; 98.9% in [8]. In addition, the inhibition of growth at 10 µM in assay [12] amounted to 38.8%; in [17], 65.7%; in [18] it was 92.1%; in assay [19] it was 90.7%.

For `O=C1CC(c2ccccc2)Cc2nc3ccc(Br)cc3cc21` (stereo not given), the 50% growth inhibitory concentration (GI50) in [1] was determined as 411 nM; in assay [5], 528 nM; in [21], 94.9 nM; in [9], 274 nM; in [10], 254 nM; in [11], 526 nM. Also, the GI50 in assay [20] worked out at 611 nM; in assay [13], 205 nM; in assay [14] it was 236 nM; in [15] it was 175 nM; in assay [16] it was 51.5 nM; in assay [22], 3450 nM. Besides, the inhibition of growth at 10 µM in [2] is 84%; in [3], 63.4%; in assay [4], 91.5%; in assay [6] it was 78%; in assay [7] it was 93.9%; in [8] it was 103%. For the same molecule, the inhibition of growth at 10 µM in assay [12] was 72.8%; in assay [17], 72.6%; in [18] it was 98.4%; in assay [19], 89.8%.

In the case of `O=C1CC(c2ccccc2)Cc2nc3ccc(Cl)cc3cc21` (stereo not given), the GI50 was determined as 306 nM in assay [1]; 588 nM in assay [5]; 334 nM in [9]; 280 nM in assay [10]; 533 nM in assay [11]; 845 nM in assay [20]. For the same molecule, the concentration for 50% growth inhibition (GI50) stood at 271 nM in assay [13], 314 nM in assay [14], 119 nM in assay [15] and 46.8 nM in assay [16]. Moreover, the inhibition of growth at 10 µM in [2] stood at 86.1%; in [3], 70.3%; in assay [4] it was 89.6%; in [6] it was 83.5%; in assay [7], 79.3%; in assay [8], 99.8%. The inhibition of growth at 10 µM in assay [12] is 73.6%; in [17], 75%; in assay [18], 112%; in assay [19], 91%.

Take `O=C1CC(c2ccccc2)Cc2nc3c(Br)cc(Br)cc3cc21` (stereo not given): the concentration for 50% growth inhibition (GI50) was 191 nM in [1]; 1410 nM in [23]; 312 nM in assay [5]; 119 nM in [21]; 82.6 nM in [9]; 66.6 nM in assay [10]. For the same molecule, the concentration for 50% growth inhibition (GI50) was found to be 661 nM in [11]; 102 nM in [20]; 233 nM in assay [13]; 137 nM in assay [14]; 66.8 nM in [24]; 67.6 nM in assay [15]. Further, the results for the GI50 in assay [25], in assay [16] and in assay [22] were 700 nM, 47.8 nM and 167 nM, respectively. Also, the inhibition of growth at 10 µM in assay [2] was 89.7%; in assay [3], 64.8%; in assay [6], 84.8%; in assay [7], 86.8%; in [8] it was 99%; in [12], 52.9%. Further, the inhibition of growth at 10 µM was 65.2% in [17], 93.1% in assay [18] and 94.7% in assay [19].
